Legend:
[1] = molecular target: Tyrosine-protein kinase ABL1 (Homo sapiens) (UniProt P00519); settings: Compound concentration 1000.0 nM
[2] = molecular target: Activin receptor type-2A (Homo sapiens) (UniProt P27037); settings: Compound concentration 1000.0 nM
[3] = molecular target: Mitogen-activated protein kinase kinase kinase 5 (Homo sapiens) (UniProt Q99683); settings: Compound concentration 1000.0 nM
[4] = molecular target: Mitotic checkpoint serine/threonine-protein kinase BUB1 (Homo sapiens) (UniProt O43683); settings: Compound concentration 1000.0 nM
Chain of Mitotic checkpoint serine/threonine-protein kinase BUB1 (Homo sapiens) (O43683 whole entry, looked up): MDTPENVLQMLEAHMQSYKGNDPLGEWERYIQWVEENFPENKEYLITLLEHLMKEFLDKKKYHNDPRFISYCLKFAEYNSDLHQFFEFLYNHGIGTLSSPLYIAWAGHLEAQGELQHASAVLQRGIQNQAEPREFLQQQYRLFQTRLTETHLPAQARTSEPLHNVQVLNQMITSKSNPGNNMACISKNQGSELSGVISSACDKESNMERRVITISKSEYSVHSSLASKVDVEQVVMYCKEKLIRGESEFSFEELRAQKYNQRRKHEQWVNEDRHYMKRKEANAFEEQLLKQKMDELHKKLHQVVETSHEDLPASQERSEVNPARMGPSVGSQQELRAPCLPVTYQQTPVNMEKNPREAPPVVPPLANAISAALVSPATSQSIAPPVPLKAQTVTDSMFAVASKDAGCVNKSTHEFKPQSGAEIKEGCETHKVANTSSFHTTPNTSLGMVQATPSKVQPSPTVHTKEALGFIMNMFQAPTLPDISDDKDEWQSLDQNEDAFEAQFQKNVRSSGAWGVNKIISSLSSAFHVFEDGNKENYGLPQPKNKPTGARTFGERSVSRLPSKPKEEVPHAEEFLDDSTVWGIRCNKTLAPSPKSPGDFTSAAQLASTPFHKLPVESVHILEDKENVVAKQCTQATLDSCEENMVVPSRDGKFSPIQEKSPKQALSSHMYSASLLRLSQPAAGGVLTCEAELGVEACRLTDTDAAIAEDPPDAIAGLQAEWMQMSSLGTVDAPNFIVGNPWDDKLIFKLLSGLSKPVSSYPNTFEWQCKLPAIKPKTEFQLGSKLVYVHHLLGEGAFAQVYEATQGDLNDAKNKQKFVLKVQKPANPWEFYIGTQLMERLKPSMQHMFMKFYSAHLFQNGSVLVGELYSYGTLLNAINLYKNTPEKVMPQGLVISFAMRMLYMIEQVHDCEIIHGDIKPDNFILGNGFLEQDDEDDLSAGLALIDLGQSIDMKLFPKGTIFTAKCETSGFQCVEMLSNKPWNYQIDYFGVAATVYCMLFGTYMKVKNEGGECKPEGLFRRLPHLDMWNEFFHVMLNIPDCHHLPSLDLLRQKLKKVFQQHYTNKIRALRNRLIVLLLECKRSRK

[5] = molecular target: Calcium/calmodulin-dependent protein kinase type II subunit gamma (Homo sapiens) (UniProt Q13555); settings: Compound concentration 1000.0 nM
[6] = molecular target: Cyclin-dependent kinase 11A (Homo sapiens) (UniProt Q9UQ88); settings: Compound concentration 1000.0 nM
[7] = molecular target: Cyclin-dependent kinase 4 (Homo sapiens) (UniProt P11802); settings: Compound concentration 1000.0 nM
Chain of Cyclin-dependent kinase 4 (Homo sapiens) (P11802 whole entry): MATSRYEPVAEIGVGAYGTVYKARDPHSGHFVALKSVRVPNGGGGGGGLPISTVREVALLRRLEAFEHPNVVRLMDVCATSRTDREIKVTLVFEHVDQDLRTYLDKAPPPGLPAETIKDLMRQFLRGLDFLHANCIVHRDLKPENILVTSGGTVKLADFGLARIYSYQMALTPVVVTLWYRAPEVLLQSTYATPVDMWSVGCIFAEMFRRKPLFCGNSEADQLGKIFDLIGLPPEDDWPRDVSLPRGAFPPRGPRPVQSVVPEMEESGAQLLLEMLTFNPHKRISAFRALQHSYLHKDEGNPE

[8] = molecular target: Tyrosine-protein kinase CSK (Homo sapiens) (UniProt P41240); settings: Compound concentration 1000.0 nM
[9] = molecular target: Casein kinase I isoform alpha (Homo sapiens) (UniProt P48729); settings: Compound concentration 1000.0 nM
Chain of Casein kinase I isoform alpha (Homo sapiens) (P48729 2-337 limits assumed): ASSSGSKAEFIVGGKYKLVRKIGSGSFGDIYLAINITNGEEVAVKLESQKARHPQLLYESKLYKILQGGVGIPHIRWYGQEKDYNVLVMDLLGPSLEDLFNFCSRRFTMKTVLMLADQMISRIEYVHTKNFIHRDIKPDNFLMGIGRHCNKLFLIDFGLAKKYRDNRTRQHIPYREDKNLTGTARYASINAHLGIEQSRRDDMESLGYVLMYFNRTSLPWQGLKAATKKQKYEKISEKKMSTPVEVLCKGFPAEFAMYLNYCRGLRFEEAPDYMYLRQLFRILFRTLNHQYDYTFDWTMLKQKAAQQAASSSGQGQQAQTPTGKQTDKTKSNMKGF

[10] = molecular target: Casein kinase I isoform gamma-1 (Homo sapiens) (UniProt Q9HCP0); settings: Compound concentration 1000.0 nM
Chain of Casein kinase I isoform gamma-1 (Homo sapiens) (Q9HCP0 whole entry, looked up, the tested form may be a part, canonical isoform): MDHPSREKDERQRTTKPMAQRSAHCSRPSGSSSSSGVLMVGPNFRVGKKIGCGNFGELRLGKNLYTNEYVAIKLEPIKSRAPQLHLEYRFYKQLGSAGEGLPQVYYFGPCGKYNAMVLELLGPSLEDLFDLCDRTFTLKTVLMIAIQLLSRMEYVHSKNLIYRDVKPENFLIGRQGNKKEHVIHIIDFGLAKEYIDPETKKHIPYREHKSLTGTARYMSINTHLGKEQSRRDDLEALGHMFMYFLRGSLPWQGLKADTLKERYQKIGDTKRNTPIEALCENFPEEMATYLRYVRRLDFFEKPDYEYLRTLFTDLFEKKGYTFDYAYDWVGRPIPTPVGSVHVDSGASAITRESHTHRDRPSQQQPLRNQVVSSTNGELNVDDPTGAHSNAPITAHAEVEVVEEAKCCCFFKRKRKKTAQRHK

[11] = molecular target: Epithelial discoidin domain-containing receptor 1 (Homo sapiens) (UniProt Q08345); settings: Compound concentration 1000.0 nM
[12] = molecular target: Discoidin domain-containing receptor 2 (Homo sapiens) (UniProt Q16832); settings: Compound concentration 1000.0 nM
Chain of Discoidin domain-containing receptor 2 (Homo sapiens) (Q16832 whole entry, the tested form may be a part): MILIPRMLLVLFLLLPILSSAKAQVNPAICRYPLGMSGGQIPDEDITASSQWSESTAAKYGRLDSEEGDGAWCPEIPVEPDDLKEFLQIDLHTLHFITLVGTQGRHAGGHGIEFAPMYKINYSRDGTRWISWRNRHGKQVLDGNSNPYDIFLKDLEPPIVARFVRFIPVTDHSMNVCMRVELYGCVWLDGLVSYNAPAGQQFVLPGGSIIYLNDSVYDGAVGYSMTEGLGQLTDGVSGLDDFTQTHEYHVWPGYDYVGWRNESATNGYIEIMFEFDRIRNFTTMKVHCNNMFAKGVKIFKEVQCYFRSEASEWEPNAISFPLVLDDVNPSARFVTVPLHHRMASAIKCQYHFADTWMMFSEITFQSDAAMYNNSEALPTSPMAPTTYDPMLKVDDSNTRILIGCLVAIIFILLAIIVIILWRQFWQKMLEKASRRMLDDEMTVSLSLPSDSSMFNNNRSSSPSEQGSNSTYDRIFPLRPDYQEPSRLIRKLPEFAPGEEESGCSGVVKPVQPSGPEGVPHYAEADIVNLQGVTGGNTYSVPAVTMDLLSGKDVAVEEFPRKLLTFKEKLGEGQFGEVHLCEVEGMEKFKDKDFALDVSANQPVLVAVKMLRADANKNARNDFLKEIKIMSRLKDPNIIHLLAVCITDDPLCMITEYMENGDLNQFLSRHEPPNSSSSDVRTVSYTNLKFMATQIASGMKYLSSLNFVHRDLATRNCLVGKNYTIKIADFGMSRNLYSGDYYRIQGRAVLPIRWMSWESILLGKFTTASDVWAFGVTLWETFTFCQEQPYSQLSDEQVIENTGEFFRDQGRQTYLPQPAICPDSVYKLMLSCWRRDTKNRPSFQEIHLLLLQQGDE

[13] = test system: Epidermal growth factor receptor (Homo sapiens), P00533 [UNDEFINED MUTATION]; settings: Compound concentration 1000.0 nM
[14] = test system: Epidermal growth factor receptor (Homo sapiens), P00533 [T790M]; settings: Compound concentration 1000.0 nM
[15] = molecular target: Receptor tyrosine-protein kinase erbB-2 (Homo sapiens) (UniProt P04626); settings: Compound concentration 1000.0 nM
[16] = molecular target: Tyrosine-protein kinase Fes/Fps (Homo sapiens) (UniProt P07332); settings: Compound concentration 1000.0 nM
[17] = molecular target: Fibroblast growth factor receptor 4 (Homo sapiens) (UniProt P22455); settings: Compound concentration 1000.0 nM
[18] = molecular target: Tyrosine-protein kinase Fyn (Homo sapiens) (UniProt P06241); settings: Compound concentration 1000.0 nM
Chain of Tyrosine-protein kinase Fyn (Homo sapiens) (P06241 2-537 limits assumed): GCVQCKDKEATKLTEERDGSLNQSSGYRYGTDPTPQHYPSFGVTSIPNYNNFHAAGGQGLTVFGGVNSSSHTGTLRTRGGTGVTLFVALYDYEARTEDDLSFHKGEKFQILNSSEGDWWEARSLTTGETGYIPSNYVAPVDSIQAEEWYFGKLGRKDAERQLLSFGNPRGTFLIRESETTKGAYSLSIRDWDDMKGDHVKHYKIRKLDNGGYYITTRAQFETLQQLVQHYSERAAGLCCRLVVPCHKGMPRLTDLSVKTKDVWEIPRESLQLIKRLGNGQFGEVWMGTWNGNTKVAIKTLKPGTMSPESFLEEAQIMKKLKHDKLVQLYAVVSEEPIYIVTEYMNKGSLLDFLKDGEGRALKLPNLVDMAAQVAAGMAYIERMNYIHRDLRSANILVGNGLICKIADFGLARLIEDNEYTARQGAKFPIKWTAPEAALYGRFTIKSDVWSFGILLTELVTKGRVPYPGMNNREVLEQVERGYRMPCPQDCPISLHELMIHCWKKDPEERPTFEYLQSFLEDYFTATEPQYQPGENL

[19] = molecular target: Serine/threonine-protein kinase ICK (Homo sapiens) (UniProt Q9UPZ9); settings: Compound concentration 1000.0 nM
[20] = molecular target: Tyrosine-protein kinase JAK2 (Homo sapiens) (UniProt O60674); settings: Compound concentration 1000.0 nM
[21] = test system: Mast/stem cell growth factor receptor Kit (Homo sapiens), P10721 [V559D,V654A]; settings: Compound concentration 1000.0 nM
Chain of Mast/stem cell growth factor receptor Kit (Homo sapiens), P10721 [V559D,V654A] (P10721 whole entry V559D/V654A): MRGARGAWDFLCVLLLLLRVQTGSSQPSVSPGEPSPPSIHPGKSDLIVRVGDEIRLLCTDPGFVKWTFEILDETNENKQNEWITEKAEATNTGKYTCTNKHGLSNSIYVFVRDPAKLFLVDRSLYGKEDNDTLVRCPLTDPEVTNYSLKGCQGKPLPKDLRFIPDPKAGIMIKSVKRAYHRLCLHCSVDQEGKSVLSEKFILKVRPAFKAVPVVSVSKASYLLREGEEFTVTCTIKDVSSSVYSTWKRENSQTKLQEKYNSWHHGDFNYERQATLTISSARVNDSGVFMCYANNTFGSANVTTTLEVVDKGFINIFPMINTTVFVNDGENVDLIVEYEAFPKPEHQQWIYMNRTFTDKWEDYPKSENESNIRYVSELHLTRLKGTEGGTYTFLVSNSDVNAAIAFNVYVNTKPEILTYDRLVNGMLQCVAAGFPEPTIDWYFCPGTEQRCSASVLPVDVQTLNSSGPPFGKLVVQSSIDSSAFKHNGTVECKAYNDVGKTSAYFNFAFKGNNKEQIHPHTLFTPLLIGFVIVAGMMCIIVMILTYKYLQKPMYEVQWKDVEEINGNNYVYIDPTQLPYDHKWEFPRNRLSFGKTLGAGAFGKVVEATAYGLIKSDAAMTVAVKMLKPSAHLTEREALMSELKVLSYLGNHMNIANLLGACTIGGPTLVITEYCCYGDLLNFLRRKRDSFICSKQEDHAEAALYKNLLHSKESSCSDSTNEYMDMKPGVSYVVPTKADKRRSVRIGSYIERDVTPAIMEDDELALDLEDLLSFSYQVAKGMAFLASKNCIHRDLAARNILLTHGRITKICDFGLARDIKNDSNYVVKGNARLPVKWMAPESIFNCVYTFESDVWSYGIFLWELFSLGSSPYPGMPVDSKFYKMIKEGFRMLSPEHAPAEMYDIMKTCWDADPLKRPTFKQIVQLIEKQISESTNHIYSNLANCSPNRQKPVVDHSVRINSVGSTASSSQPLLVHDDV

[22] = molecular target: Tyrosine-protein kinase Lyn (Homo sapiens) (UniProt P07948); settings: Compound concentration 1000.0 nM
[23] = molecular target: Dual specificity mitogen-activated protein kinase kinase 6 (Homo sapiens) (UniProt P52564); settings: Compound concentration 1000.0 nM
[24] = molecular target: Tyrosine-protein kinase Mer (Homo sapiens) (UniProt Q12866); settings: Compound concentration 1000.0 nM
[25] = molecular target: Myosin-IIIa (Homo sapiens) (UniProt Q8NEV4); settings: Compound concentration 1000.0 nM
[26] = molecular target: Serine/threonine-protein kinase Nek4 (Homo sapiens) (UniProt P51957); settings: Compound concentration 1000.0 nM
[27] = molecular target: Serine/threonine-protein kinase NLK (Homo sapiens) (UniProt Q9UBE8); settings: Compound concentration 1000.0 nM
[28] = molecular target: Calcium-dependent protein kinase 1 (Plasmodium falciparum) (UniProt P62344); settings: Compound concentration 1000.0 nM
Chain of Calcium-dependent protein kinase 1 (Plasmodium falciparum) (P62344 2-524 limits assumed): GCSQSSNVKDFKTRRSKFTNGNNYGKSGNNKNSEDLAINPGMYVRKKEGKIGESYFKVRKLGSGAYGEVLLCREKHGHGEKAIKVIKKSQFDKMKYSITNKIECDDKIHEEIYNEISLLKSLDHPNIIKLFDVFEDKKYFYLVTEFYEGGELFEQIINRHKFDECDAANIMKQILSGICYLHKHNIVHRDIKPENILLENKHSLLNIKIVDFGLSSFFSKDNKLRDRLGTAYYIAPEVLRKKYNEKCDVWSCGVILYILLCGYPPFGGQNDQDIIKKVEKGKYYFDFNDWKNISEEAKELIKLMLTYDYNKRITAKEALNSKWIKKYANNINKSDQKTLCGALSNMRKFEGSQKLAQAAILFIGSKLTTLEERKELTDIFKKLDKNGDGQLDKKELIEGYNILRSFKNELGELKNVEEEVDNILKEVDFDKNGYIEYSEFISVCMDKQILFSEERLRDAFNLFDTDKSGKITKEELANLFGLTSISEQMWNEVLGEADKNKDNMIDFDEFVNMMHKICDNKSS

[29] = molecular target: Phosphatidylinositol 4-phosphate 3-kinase C2 domain-containing subunit beta (Homo sapiens) (UniProt O00750); settings: Compound concentration 1000.0 nM
[30] = molecular target: Protein kinase C theta type (Homo sapiens) (UniProt Q04759); settings: Compound concentration 1000.0 nM
[31] = test system: Proto-oncogene tyrosine-protein kinase receptor Ret (Homo sapiens), P07949 [M918T]; settings: Compound concentration 1000.0 nM
[32] = molecular target: Receptor-interacting serine/threonine-protein kinase 4 (Homo sapiens) (UniProt P57078); settings: Compound concentration 1000.0 nM
[33] = molecular target: Ribosomal protein S6 kinase alpha-2 (Homo sapiens) (UniProt Q15349); settings: Compound concentration 1000.0 nM
[34] = molecular target: Ribosomal protein S6 kinase alpha-6 (Homo sapiens) (UniProt Q9UK32); settings: Compound concentration 1000.0 nM
[35] = molecular target: Ribosomal protein S6 kinase beta-1 (Homo sapiens) (UniProt P23443); settings: Compound concentration 1000.0 nM
[36] = molecular target: SNF-related serine/threonine-protein kinase (Homo sapiens) (UniProt Q9NRH2); settings: Compound concentration 1000.0 nM
[37] = molecular target: Serine/threonine-protein kinase 36 (Homo sapiens) (UniProt Q9NRP7); settings: Compound concentration 1000.0 nM
[38] = molecular target: Serine/threonine-protein kinase TAO3 (Homo sapiens) (UniProt Q9H2K8); settings: Compound concentration 1000.0 nM
[39] = molecular target: Mu-type opioid receptor (Homo sapiens) (UniProt P35372); settings: Compound concentration 10.0 uM
[40] = molecular target: Histamine H2 receptor (Homo sapiens) (UniProt P25021); settings: Compound concentration 10.0 uM
[41] = molecular target: Alpha-1A adrenergic receptor (Homo sapiens) (UniProt P35348); settings: Compound concentration 10.0 uM
[42] = molecular target: Alpha-2B adrenergic receptor (Homo sapiens) (UniProt P18089); settings: Compound concentration 10.0 uM
[43] = molecular target: Beta-1 adrenergic receptor (Homo sapiens) (UniProt P08588); settings: Compound concentration 10.0 uM
[44] = molecular target: Beta-3 adrenergic receptor (Homo sapiens) (UniProt P13945); settings: Compound concentration 10.0 uM
[45] = molecular target: Alpha-1D adrenergic receptor (Homo sapiens) (UniProt P25100); settings: Compound concentration 10.0 uM

COc1cccc(CNC(=O)c2nc3scc(COCc4ccc(C(=O)O)cc4)c3c(=O)[nH]2)c1 [T-26c]
inactive: residual activity [1] 85% | residual activity [2] 92.9% | residual activity [3] 97.8% | residual activity [4] 70.2% | residual activity [5] 100% | residual activity [6] 99.2% | residual activity [7] 91.1% | residual activity [8] 100% | residual activity [9] 82.1% | residual activity [10] 100% | residual activity [11] 100% | residual activity [12] 98.9% | residual activity [13] 76% | residual activity [14] 92.1% | residual activity [15] 97.2% | residual activity [16] 94.5% | residual activity [17] 91.4% | residual activity [18] 81.1% | residual activity [19] 66.1% | residual activity [20] 100% | residual activity [21] 98% | residual activity [22] 93.7% | residual activity [23] 100% | residual activity [24] 88.3% | residual activity [25] 88% | residual activity [26] 83.8% | residual activity [27] 80.3% | residual activity [28] 72.7% | residual activity [29] 80.6% | residual activity [30] 100% | residual activity [31] 89.5% | residual activity [32] 67.1% | residual activity [33] 100% | residual activity [34] 63.5% | residual activity [35] 96.1% | residual activity [36] 89.2% | residual activity [37] 100% | residual activity [38] 72.3% | inhibition [39] -3.34% | inhibition [40] 28.4% | inhibition [41] -1.51% | inhibition [42] 11% | inhibition [43] 29.9% | inhibition [44] 7.44% | inhibition [45] -5.4%
